No end group written: not given here.
Key:
[1] = tested on: TNPO3; assay: NMR binding studies with TNPO3 (1H-15N HSQC, 1H-13C HMQC, 1H 1D, STD); set-up: species or system human; details: for line broadening of peptide 1H signals upon addition of TNPO3 (1H NMR): 50 µM peptide, stoichiometric amount of TNPO3
Method: All NMR studies for TNPO3 were carried out using the wild type protein. Protein samples for ^1H-^13C HMQC were prepared at a concentration of 100 μM and equilibrated in a buffer containing 50 mM Tris–HCl, pH 6.7, 150 mM NaCl, 2 mM TCEP and 10% D2O. Spectral acquisitions for TNPO3 free and in complex with CIRBP^RSY and SRSF1^RS, respectively were performed at 298 K on a 700 MHz Bruker Avance III NMR spectrometer equipped with a TCI triple-resonance cryoprobe. The pulse program was sfhmqcf2gpph and the spectra were recorded with 32 scans, interscan delay of 1 s, 160 points in F1, 1024 points in F2, 5283.879 Hz spectral width in F1, and 11,160.714 Hz spectral width in F2. Spectra were processed using Topspin 4.1.3.
Spectral acquisitions for TNPO3 free and in complex with mCIRBP^RSY, pCIRBP^RSY, and pSRSF1^RS, respectively, were performed at 298 K on a 600 MHz Bruker Avance Neo NMR spectrometer equipped with a TXI 600S3 probehead. The pulse program was hmqcgpphwg and the spectra were recorded with 64 scans, interscan delay of 1 s, 200 points in F1, 1024 points in F2, 4545.455 Hz spectral width in F1, and 7812.500 Hz spectral width in F2. Spectra were processed using Topspin 4.3.0.
For ^1H-^15N HSQC spectra, protein samples were equilibrated in a buffer containing 50 mM Tris–HCl, pH 6.7, 150 mM NaCl, 2 mM TCEP, 0.04% NaN3, and 10% D2O (with additional 20 mM MgCl2 for CIRBP phosphorylation kinetics). Data were recorded at 298 K on the 600 MHz Bruker Avance Neo NMR spectrometer equipped with a TXI 600S3 probehead. The pulse program was hsqcetfpf3gpsi and was recorded with 8-16 scans, interscan delay of 1 s, 128 points in F1, 1024 points in F2, 1949.318 Hz spectral width in F1, and 9615.385 Hz spectral width in F2. Spectra were processed using Topspin 4.3.0.

[2] = biological target: T1, TNPO3 C511A (Homo sapiens, UniProt Q9Y5L0, C511A); assay: ITC, ligand titrated into TNPO3 C511A; type: binding; details: for TNPO3 binding Kd, outcome in words: TNPO3 C511A, two replicates
T1 construct: full-length (FL) WT human TNPO3 were generated by synthesizing codon-optimized DNA fragments; His6 (N, cleaved yes); protein A (N, cleaved yes); made in house; host or cells: Escherichia coli BL21-(DE3) Star
T1 sequence (Q9Y5L0 1-923 C511A): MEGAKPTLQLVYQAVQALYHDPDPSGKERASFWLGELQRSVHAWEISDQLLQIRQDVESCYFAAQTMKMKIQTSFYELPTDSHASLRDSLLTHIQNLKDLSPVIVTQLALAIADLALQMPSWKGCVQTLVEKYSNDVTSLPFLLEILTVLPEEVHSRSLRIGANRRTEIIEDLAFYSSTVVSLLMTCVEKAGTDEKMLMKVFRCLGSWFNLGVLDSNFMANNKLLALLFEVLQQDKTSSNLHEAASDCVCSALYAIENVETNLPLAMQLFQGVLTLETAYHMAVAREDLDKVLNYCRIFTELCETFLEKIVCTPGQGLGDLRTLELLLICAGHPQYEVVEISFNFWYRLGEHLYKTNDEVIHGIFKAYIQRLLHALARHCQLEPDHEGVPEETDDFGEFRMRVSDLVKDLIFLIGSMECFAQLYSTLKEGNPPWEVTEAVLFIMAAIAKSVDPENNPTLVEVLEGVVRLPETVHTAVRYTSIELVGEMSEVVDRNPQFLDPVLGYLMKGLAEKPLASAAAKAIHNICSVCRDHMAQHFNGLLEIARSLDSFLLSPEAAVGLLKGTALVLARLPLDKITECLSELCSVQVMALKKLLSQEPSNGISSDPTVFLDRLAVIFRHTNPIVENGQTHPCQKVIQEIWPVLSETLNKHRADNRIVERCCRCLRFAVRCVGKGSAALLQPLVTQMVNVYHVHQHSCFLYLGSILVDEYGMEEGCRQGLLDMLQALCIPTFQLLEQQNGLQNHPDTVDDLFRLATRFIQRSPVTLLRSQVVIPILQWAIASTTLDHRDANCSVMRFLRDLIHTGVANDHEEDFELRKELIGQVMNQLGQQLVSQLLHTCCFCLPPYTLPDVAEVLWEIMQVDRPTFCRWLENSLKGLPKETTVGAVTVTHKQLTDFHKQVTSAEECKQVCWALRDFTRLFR
Method: ITC has been performed by a Malvern Microcal VP-ITC at 25 °C for all binding studies. Samples have been dissolved in Tris buffer containing 50 mM Tris–HCl, 150 mM NaCl, 2 mM TCEP, and 0.04% NaN3 at pH 7.5. Binding studies of CIRBP^RSY and SRSF1^RS were performed with TNPO3 WT, and studies of CIRBP (157–172) and its mutants/phosphorylations were performed with TNPO3 C511A, respectively. Injection has been carried out by a syringe containing ligand solution of 100 μM, which adds ligand step-wise into the cell containing 10 μM TNPO3 during 28 injections of 10 μL each. Data analysis, curve fitting, and calculation of Kd, ΔH, and ΔS have been carried out using Origin-based 7.0 software provided by the manufacturer. All replicated ITC data are shown in Supplementary Fig. 6 and Supplementary Table 1.

[3] = 100 µM ligand into 10 µM TNPO3 C511A, 25 °C, 50 mM Tris–HCl, 150 mM NaCl, 2 mM TCEP, 0.04% NaN3, pH 7.5, error = SD of the fit

Substance | line broadening of peptide 1H signals upon addition of TNPO3 (1H NMR) [1] | Kd / affinity of binding to TNPO3 C511A (ITC), as given in Table 1 [2, 3] | TNPO3 binding Kd, outcome in words [2] | also measured
GGSYADSYDSYATHNE [CIRBP (157-172) R161A, synthetic CIRBP (157-172) peptide with point mutation R161A] |  | No binding | No binding | 
GGSYRDSYDSYATHNE [CIRBP (157-172) WT] |  |  |  | Kd ([2]; 100 µM ligand into 10 µM TNPO3 C511A, 25 °C, 50 mM Tris–HCl, 150 mM NaCl, 2 mM TCEP, 0.04% NaN3, pH 7.5, error = SD of the fit, read-out: Kd / affinity of binding to TNPO3 C511A (ITC), as given in Table 1): 5.78 ± 1.63 µM
GGSYRDSYDpSYATHNE [CIRBP (157-172) S166pS, synthetic CIRBP (157-172) peptide with phosphorylated S166] |  | decreased binding beyond being detectable or fittable | No binding | 
GGSYRDSpYDSYATHNE [CIRBP (157-172) Y164pY, synthetic CIRBP (157-172) peptide with phosphorylated Y164] |  | decreased binding beyond being detectable or fittable | No binding | 
GGSYRDSADSYATHNE [CIRBP (157-172) Y164A, synthetic CIRBP (157-172) peptide with point mutation Y164A] |  | No binding | No binding | 

More lines, main results first:

line broadening of peptide 1H signals upon addition of TNPO3 (1H NMR) [1] | Kd / affinity of binding to TNPO3 C511A (ITC), as given in Table 1 [2, 3] | TNPO3 binding Kd, outcome in words [2] | Substance | also measured
broadened |  |  | SQVYRCGFQPFNQHLLPW [P5CS] | 
broadened |  |  | SRDRRFRGRYRSPYSG [RBM39] | 
broadened |  |  | YYDYEIERFWRGGQYENFRV [ZCH18] | 
 |  | Low affinity | GGSYRDSYDSpYATHNE [CIRBP (157-172) Y167pY, synthetic CIRBP (157-172) peptide with phosphorylated Y167] | 
 | Low affinity | Low affinity | GGSYRDSYDSAATHNE [CIRBP (157-172) Y167A, synthetic CIRBP (157-172) peptide with point mutation Y167A] | 
broadened |  |  | PSGGSYRDSYESYGNS [RBMX/RMXL1, synthetic peptide RBMX (276–291), CIRBP-like motif] | change of peptide 1H 1D NMR signals with sub-stoichiometric TNPO3 ([1]; 100 µM RSY regions and 10 µM TNPO3 (peer review reply)): slight decrease of peptide signal intensity

— PMC12075686, “Structural basis of phosphorylation-independent nuclear import of CIRBP by TNPO3” (Nature Communications, 2025)
